First: O=C(NCc1cc(Br)cc2[nH]c(=O)c(=O)[nH]c12)c1ccccn1
Second: CCOc1ccccc1NC(=O)C1Sc2ccc(Cl)cc2N(C)C1=O (stereo not drawn)
The melting point of the first is higher: > 270 °C for the first, 124 to 126 °C for the second.

First: O=C(Cn1cncn1)c1cccc2ccccc12
Second: Cc1nn(-c2ccccc2)c(-c2ccc(Cl)cc2)c1CC(=O)O
The melting point of the first is lower: 130 °C for the first, 174 to 177 °C for the second.

First: CN1Cc2c(C(=O)OC(C)(C)C)ncn2-c2cccnc2C1=O
Second: CCn1nc2c(N)nc3ccccc3c2c1CC(C)(C)NCCS(C)(=O)=O
The melting point of the first is higher: 234 to 236 °C for the first, 155 to 157 °C for the second.

First: O=C(CCCCCl)c1cc2c3c(c1)CC(=O)N3CCC2
Second: CCN(CC)CCCCC(=O)c1cccc2cc3c(C(=O)CCCCN(CC)CC)cccc3cc12
The melting point of the first is higher: 89 to 90 °C for the first, 65 to 67 °C for the second.

First: CCOC(=O)C(NC=O)C(=O)Nc1ccc(Br)cc1C (stereo not drawn)
Second: Cc1cc(Br)cc(C)c1N[N+](=O)[O-]
The melting point of the first is higher: 174 to 176 °C for the first, 129 to 131 °C for the second.

Compared with `CCOC(=O)c1c(N(C)C)cc(C(F)(F)F)nc1C(F)(F)F`, `O=C(/C=C/C1CCCCC1)N1CCN(C(=O)c2cc(C(F)(F)F)cc(C(F)(F)F)c2)[C@H](Cc2c[nH]c3ccccc23)C1` is higher in melting point: 63.5 to 65 °C for the first, 198 to 200 °C for the second.

Compared with `O=C(O)[C@H](CCc1ccccc1)NS(=O)(=O)c1ccc2c(c1)Sc1ccccc1O2`, `CCOC(=O)c1cc(NCc2ccccc2)c(Nc2ccc(OC)cc2)c(S(N)(=O)=O)c1` is lower in melting point: 149 to 154 °C for the first, 145 °C for the second.

Compared with `COc1ccc(-c2[nH]cnc2-c2cc(OC)c(N)c(OC)c2)cc1N`, `COc1ccccc1-c1cc(S(=O)(=O)c2ccc(N)cc2)cc(N2CCCC2)n1` is higher in melting point: 140 to 142 °C for the first, 217 to 219 °C for the second.

First: CC(c1ccc(F)cc1)N(O)C(N)=O (stereo not drawn)
Second: C=Cc1ccc(CCOC(=O)CC(C)NC(N)=O)cc1 (stereo not drawn)
The melting point of the first is higher: 127 to 129 °C for the first, 117 to 119 °C for the second.

Compared with `FC(F)(F)c1cc(Cl)c(-n2cc(C3CC3(Br)Br)c(C=C(Br)Br)n2)c(Cl)c1` (stereo not drawn), `CC(NC1CCC(=O)NC1c1ccc(F)cc1)c1cc(C(F)(F)F)cc(C(F)(F)F)c1` (stereo not drawn) is higher in melting point: 106 to 107 °C for the first, 120 °C for the second.

Compared with `Cc1cccc(-c2nc3cccnn3c2-c2ccnc(NC3CCCC3)c2)c1`, `c1ccc(Cc2n[nH]c(NCCCOc3cccc(CN4CCCCC4)c3)n2)cc1` is higher in melting point: 130 to 131 °C for the first, 143 to 144 °C for the second.

Compared with `c1cc(CCCCCc2nnn[nH]2)n2cncc2c1`, `CCCCCNc1nc(NCC(C)C)c2ncn(CC(=O)O)c2n1` is lower in melting point: 149 to 150 °C for the first, 139 to 148 °C for the second.

Compared with `C=CCOC(=O)NC(C)(C)c1ccc(-c2nc(Nc3ccc(CCn4ccnc4)cc3)ncc2Cl)cc1`, `O=S(=O)(c1ccc(OCCCBr)cc1)c1c(-c2ccccc2)cn2ccccc12` is higher in melting point: 72 to 78 °C for the first, 199 °C for the second.

Compared with `O=C(NCCN(C1CC1)S(=O)(=O)c1ccccc1[N+](=O)[O-])N1CCN2C(=O)OC(c3cccc(F)c3)(c3cccc(F)c3)C2C1` (stereo not drawn), `NC(=O)CNC(=O)c1ccnc(-c2cccc3sc(Cc4cccc(C(F)(F)F)c4)cc23)c1` is lower in melting point: 203 °C for the first, 49 to 50 °C for the second.

First: CN1CCN(c2ccc(Nc3nc(N)c(C(=O)c4c(F)cccc4C(F)(F)F)s3)cc2)CC1
Second: CCOc1ccc(-c2ccc(S(=O)(=O)NC(C(=O)O)C3CCN(CC(C)C)CC3)s2)cc1 (stereo not drawn)
The melting point of the first is lower: 155 to 158 °C for the first, 220 to 225 °C for the second.

`COc1ccc(Cc2oc3c(Cl)cc(CCC(=O)O)c(O)c3c2C)cc1` and `COc1ccc2nc(C)c(CCCl)c(=O)n2c1` cannot be ordered by melting point: 149 to 151 °C for the first, 150 °C for the second.

First: c1cc(-c2nc(COC3CCCCO3)no2)sc1CN1CCCCCC1 (stereo not drawn)
Second: CCCN1C(=O)N2CCN=C2c2[nH]cnc21
The melting point of the first is lower: 79 to 81 °C for the first, 283 to 285 °C for the second.

First: OC1c2ccccc2-c2nc(-c3ccc(Cl)cc3Cl)ncc21 (stereo not drawn)
Second: CCCCCCCCCCC1(CCCCCCCCCC)c2cc(C=Cc3ccncc3)ccc2-c2ccc(N(c3ccccc3)c3ccccc3)cc21
The melting point of the first is higher: 188 °C for the first, 88.4 to 89.3 °C for the second.

First: CCCCn1c(NNC(=S)NC(C)=O)cc(=O)n(CCC)c1=O
Second: N#Cc1cnn(-c2ccc(C(F)(F)F)cc2[N+](=O)[O-])c1N
The melting point of the first is lower: 149 to 152 °C for the first, 234 to 236 °C for the second.

From a melting point compilation (Tetko et al.; mined from patent text by program, amines drawn as free bases though some values may be those of a salt)
